Data set [1] concerns the target T1, HIV-1 RT (Human immunodeficiency virus type 1 group M subtype B, UniProt P04585).
T1 construct: Pre-Steady State Kinetic Parameters of HIV-1 RT for dTTP/dUTP
Put plainly: Single nucleotide extension at macrophage nucleotide concentrations. Type of data set: biochemical. The conditions noted are these: rNTP alone at macrophage concentration. An excerpt: FIGS. 4A-4E compare the dNTP and rNTP incorporation rates of HIV-1 RT at nucleotide concentrations found in human macrophages. Incorporation kinetics of HIV-1 RT (green circle) for individual dNTPs and rNTPs at their concentrations found in macrophages (see Table 1) were compared by single nucleotide extension reactions. FIG. 4A is a gel showing a representative time-course reaction set for dATP alone, ATP alone, or both dATP and ATP at their macrophage concentrations. P: unextended 17-mer primer, E: extended 18-mer product. and C: no RT control. FIG. 4B includes graphs. The percentages of the primer extension at early time points were plotted to compare the incorporation rate for each dNTP or rNTP alone as well as for dNTPs and rNTPs at their macrophage concentrations. FIG. 4C is a gel showing a time-course reaction. Identical reactions were conducted with SIVagm Sab-1 RT. FIG. 4D is a table showing the steady state Km values of HIV-1 RT to rNTPs determined by single nucleotide incorporation assays. FIG. 4E is a graph comparing rNTP concentrations (black bars) of macrophages and PBMCs and the Km values (red zone) of HIV-1 RT to rNTPs. Grey bars: average concentrations of dNTPs of the two target cell types obtained from Table 1.
The incorporation kinetics for individual dNTPs and rNTPs by retrovirus RT at the concentrations found in non-dividing cells were assessed. For this, a primer extension reaction similar to that used in FIG. 3C was employed, except nucleotide specific primers and a single dNTP, rNTP, or both were used to estimate individual nucleotide incorporation rates. […] Upon combining dNTPs and rNTPs in a reaction (FIGS. 4A and B, purple dotted lines), the total single nucleotide extension rate appeared to be elevated as compared to the rates of either dNTP (red line) or rNTP alone. When primer extension products were plotted by time, primer extension was accelerated in the presence of both dNTPs and rNTPs at their macrophage concentrations as compared to the reactions containing either dNTPs or rNTPs alone. The results of this single nucleotide assay are consistent with the data from the multiple nucleotide incorporation assay (FIG. 3C).

Data set [2] deals with T1, HIV-1 RT. The data set is described as follows: Steady state kinetics of reverse transcriptase for dTTP/dUTP. Type of data set: biochemical. On the procedure:
(§1) Retrovirus RT was assessed for its ability to incorporated dTTP and dUTP at physiologically relevant concentrations. First, Km of HIV-1 RT, SIV RT, MuLV RT, and FIV RT for both dTTP and dUTP was measured.
The single nucleotide incorporation reactions were conducted using 20 nM template/primers (40mer RNA template annealed to Primer A, Ext-T primer, Ext-G primer, or Ext-C primer) and 20 nM RT in 1× reaction buffer for 5 minutes at varying concentrations of NTP. Reactions were performed in triplicate.
(§2) All primer extension reactions were analyzed with urea denaturing 10-16% PAGE gels and scanned with a phosphoimager (Biorad, Hercules, Calif.) and quantified with the Biorad Quantity One software. Nonlinear regression analysis was done with Kaleida Graph (Synergy Software, Reading, Pa.). Rates were determined with a single exponential, and Michaelis Menten fits were completed as previously described in Kennedy et al. Biochemistry 48:11161-11168 (2009).

In data set [3] the target is T1, HIV-1 RT. Put plainly: Pre-steady state quench flow titrations for dTTP and dUTP. Type of data set: biochemical. On the procedure: To confirm that selectivity is not pronounced during the binding or isomerization steps of polymerization, pre-steady state quench flow titrations for dTTP and dUTP were performed with HIV-1 RT.
Data set [4] deals with SIVagm Sab1 RT. The data set is described as follows: Steady state kinetics of reverse transcriptase for dTTP/dUTP. Type of data set: biochemical, simian immunodeficiency virus (SIVagm Sab). The conditions noted are these: SIV RT. The procedure:
as §1, §2

The target of data set [5] is FIV RT (Feline immunodeficiency virus, UniProt P16088). The data set is described as above. Type of data set: biochemical. The procedure: as §1, §2
The target in data set [6] is MuLV RT (Moloney murine leukemia virus, UniProt P03355). The data set is described as above. Type of data set: biochemical. The procedure: as §1, §2
Data set [7] deals with T1, HIV-1 RT. The data set is described as follows: Primer extension followed by E. coli UNG2 digestion (dUTP incorporation). Type of data set: biochemical. The procedure:
FIG. 8A includes a schematic of a coupled RT extension reaction UNG2 digestion assay and a gel. RT was incubated with i) the dNTP concentrations found in macrophages or PBMCs, and ii) either the dUTP concentration for those cells types or ddH20. These reactions were quenched with EDTA and subjected to E. Coli UNG2 digestion, followed by 95° C. incubation and UREA PAGE gel electrophoresis. The digested bands (*) were quantified and plotted relative to total unextended and extended products. […] FIG. 8C includes a gel showing the results of single nucleotide extension reactions of HIV-1 RT with dTTP and dUTP concentrations found in macrophages. […] The rates of product formation for dTTP (black line), dUTP (blue line), and both dTTP and dUTP (green line) were plotted.
HIV-1 RT mediated DNA synthesis in nucleotide pools found in dividing and non-dividing cells was further assessed using a primer extension assay followed by E. coli UNG2 digestion to quantify the amount of dUTP incorporated under these condition (FIG. 8). The presence of a […] band at the first dTTP/dUTP incorporation site was used to monitor the fraction of DNAs that contained a dUTP following UNG digestion (see * in FIG. 8). […] The single nucleotide extension assays were performed to compare the rate of incorporation dTTP, dUTP, or both nucleotides at concentrations found in non-dividing cells. […]

Data set [8] has as its system primary human macrophages.
Protocol: The treated cells were then transduced with a single round of VSV-G pseudotyped HIV-1 vector D3-HIV in the presence of various concentrations of drug.
The purified human monocytes from three different donors were differentiated to macrophages as described previously, and D3HIV-GFP vector system expressing GFP, was also prepared as previously described in Jamburuthugoda et al. J. Biol. Chem. 281:13388-13395 (2006); Diamond et al. J. Biol. Chem. 279:51545-51553 (2004); Jamburuthugoda et al. J. Biol. Chem. 283:9206-9216 (2008); and Weiss et al. Biochemistry 43:4490-4500 (2004). […] One half of the harvested cells were used for determining the percentages of the GFP expressing and/or propidium iodide (PI) stained cells by FACS at 7 days post infection. All cells used to asses transduction efficiency were gated or stained with propidium iodide to assure live cells were measured.
Data set [9] concerns HIV-1 vector (D3-GFP) in primary human macrophages. Put plainly: HIV-GFP vector transduction of primary macrophages (GFP FACS). Type of data set: cell-based. The conditions noted are these: ddUTP pretreated macrophages, flow cytometry. Background: In flow cytometry, cells or beads pass a laser one at a time.
Protocol: Human primary macrophages were preincubated with different concentrations of rACT (0, 10, 100 and 100 μM) for 24 hours and then transduced with HIV-GFP vector (equal p24 amounts). The percentages of GFP positive macrophages and PI positive cells in a representative donor, which were determined by FACS at 7 days post transduction, are shown. […] These experiments were performed in triplicate from three different blood donors.
Primary human macrophages were pretreated with ddUTP and transduced with a single round VSV-G pseudotyped HIV-1 vector (D3HIV). […] FIG. 10B is a graph showing the results from flow cytometry analysis of the transduced cells.
Next, rACT was evaluated for its ability to inhibit HIV-1 replication in non-dividing cells. The transduction efficiency of an HIV-1 vector in primary human macrophages in the presence and absence of rACT was measured. Human macrophages, which were prepared from multiple donors, were pre-incubated with various concentrations of rACT, and then transduced with an HIV vector (D3-GFP), which expressed all HIV-1 proteins except Env and Nef (replaced with eGFP). Virus infectivity was determined by FACS analysis for GFP expression at 7 days post infection.
Dideoxy uracil triphosphate (ddUTP) was assessed for its ability to inhibit viral reverse transcription in non-dividing cells. […]
The subject of data set [10] is HIV-1 vector (DHIV-GFP) in activated CD4+ T cells. The data set is described as follows: HIV-GFP vector transduction of activated CD4+ T cells (GFP FACS). Type of data set: cell-based. The conditions noted are these: ddUTP, CD4+ T cells.
Protocol: Next, rACT was evaluated for its ability to inhibit HIV-1 replication in non-dividing cells. The transduction efficiency of an HIV-1 vector in primary human macrophages in the presence and absence of rACT was measured. Human macrophages, which were prepared from multiple donors, were pre-incubated with various concentrations of rACT, and then transduced with an HIV vector (D3-GFP), which expressed all HIV-1 proteins except Env and Nef (replaced with eGFP). Virus infectivity was determined by FACS analysis for GFP expression at 7 days post infection. […] Finally, the effect of rACT on HIV-1 infection in activated CD4^+ T cells was examined.
(§3) Dideoxy uracil triphosphate (ddUTP) was assessed for its ability to inhibit viral reverse transcription in non-dividing cells. Primary human macrophages and CD4^+ T-cells were isolated from human buffy coats and pretreated with ddUTP. The treated cells were then transduced with a single round of VSV-G pseudotyped HIV-1 vector D3-HIV in the presence of various concentrations of drug.
rACT was tested in T cells as follows, human primary activated CD4^+ T cells (2.5×10^5) cells isolated from two donors were pre-treated with 0, 0.1, and 1 mM rACT for 4 hours, and then the cells were transduced with DHIV-GFP. The transduced cells were fixed at 48 hours post transduction, and analyzed by FACS for determining the percent of GFP cells. […]
Data set [11] relates to HIV-1 2-LTR DNA circles (proviral DNA synthesis) in macrophages. Put plainly: Quantitative 2LTR circle PCR in transduced macrophages. Type of data set: cell-based. Particulars: ddUTP treated cells.
Protocol: Human macrophages, which were prepared from multiple donors, were pre-incubated with various concentrations of rACT, and then transduced with an HIV vector (D3-GFP), which expressed all HIV-1 proteins except Env and Nef (replaced with eGFP).
as §3
Equal p24 level of the produced vector was used for infecting human macrophages pre-incubated with different concentrations of rACT (RI Chemicals, CA) for 12 hours. For ddUTP, the produced vector was pre-incubated for at least two hours. One half of the harvested cells were used for determining the percentages of the GFP expressing and/or propidium iodide (PI) stained cells by FACS at 7 days post infection. All cells used to asses transduction efficiency were gated or stained with propidium iodide to assure live cells were measured. The remaining cells were used for the extraction of genomic DNA. Quantitative 2LTR circle PCR assay using real-time PCR was normalized by total genomic DNA (Biorad, Hercules, Calif.).

`Nc1ncnc2c1ncn2[C@@H]1O[C@H](COP(=O)(O)OP(=O)(O)OP(=O)(O)O)[C@@H](O)[C@H]1O` [ATP]: the “rNTP incorporation by HIV-1 RT” value in data set [1] is “efficiently”.

As to `Nc1ccn([C@@H]2O[C@H](COP(=O)(O)OP(=O)(O)OP(=O)(O)O)[C@@H](O)[C@H]2O)c(=O)n1` [CTP], the “rNTP incorporation by HIV-1 RT” value in data set [1] is “efficiently”.

Regarding `Nc1nc2c(ncn2[C@@H]2O[C@H](COP(=O)(O)OP(=O)(O)OP(=O)(O)O)[C@@H](O)[C@H]2O)c(=O)[nH]1` [GTP], the “rNTP incorporation by HIV-1 RT” value in data set [1] is given as “less efficiently”.

Regarding `O=c1ccn([C@@H]2O[C@H](COP(=O)(O)OP(=O)(O)OP(=O)(O)O)[C@@H](O)[C@H]2O)c(=O)[nH]1` [UTP], the “rNTP incorporation by HIV-1 RT” value in data set [1] is listed as “less efficiently”.

In general, Km refers to the concentration of substrate that gives half-maximal velocity. As a reminder, the Kd is the free concentration of one partner at which half of the binding sites on the other are occupied at equilibrium, for simple one-to-one binding. Low values mean higher affinity, high ones lower affinity. For the compound `Cc1cn([C@H]2C[C@H](O)[C@@H](COP(=O)(O)OP(=O)(O)OP(=O)(O)O)O2)c(=O)[nH]c1=O` [dTTP], in [2], the Km turned out to be 0.0218 ± 0.0028 µM and the “Selectivity (dTTP/dUTP)” value is reported as 1.298. In data set [3], this compound returned a Kd of 3.4 ± 0.62 µM, a Kpol of 85.72 ± 7.3 S^−1, a Selectivity of 1.0 and a kpol/kd of 25 μM^−1 S^−1. In addition, in data set [4], the Michaelis constant (Km) was 0.0184 ± 0.0043 µM and the “Selectivity (dTTP/dUTP)” value was determined as 0.839. For the same compound, in [5], the Km was 0.0586 ± 0.0066 µM and the “Selectivity (dTTP/dUTP)” value is recorded as 3.754. Further, in [6], the Km was 0.0504 ± 0.022 µM and the “Selectivity (dTTP/dUTP)” value amounted to 4.969.

Take `O=c1ccn([C@H]2C[C@H](O)[C@@H](COP(=O)(O)OP(=O)(O)OP(=O)(O)O)O2)c(=O)[nH]1` [dUTP]: the Michaelis-Menten constant (Km) in data set [2] stood at 0.0277 ± 0.007 µM. Moreover, the “dUTP incorporation, fraction of all synthesized DNA” value in data set [7] (dUTP and dNTP levels found in non-dividing cells) is on record as “⅓”. For the same compound, the “dUTP incorporation, non-dividing versus dividing cell environment” value in data set [7] (non-dividing compared to dividing cell environment) is “approximately 5 fold”. In data set [3], binding was characterised by a dissociation constant (Kd) of 5.1 ± 1.93 µM, the Kpol is 194.39 ± 30.0 S^−1, the Selectivity turned out to be 1.52 and the kpol/kd is reported as 38 μM^−1 S^−1. For the same compound, the Km in [4] amounted to 0.017 ± 0.0035 µM. For the same compound, the Km in data set [5] turned out to be 0.18 ± 0.0045 µM. Also, the Michaelis constant (Km) in data set [6] came to 0.253 ± 0.0521 µM.

As to `O=c1ccn([C@H]2CC[C@@H](COP(=O)(O)OP(=O)(O)OP(=O)(O)O)O2)c(=O)[nH]1` [ddUTP, Dideoxy uracil triphosphate], the cell death entry in [8] is on record as “little cell death”. Further, the “inhibition of transduction (eGFP positive live macrophages)” value in data set [9] is “dose dependent inhibition of transduction”. In addition, the “reduction in transduction efficiency” value in data set [10] is listed as “Little or no reduction in transduction efficiency”. Also, in data set [11], the “2LTR circles (QT-PCR)” value is reported as 2LTR circles accumulated in the cells treated with higher concentrations of drug.
